Assay results reported in patent US20250084039A1, “4-SUBSTITUTED AMINOISOQUINOLINE DERIVATIVES” (Purdue Research Foundation, priority 2016, published 2025).
Like-named read-outs stand apart in the source and are kept apart here.

Experiments:
AKT1 = AKT1 (Homo sapiens (Human), UniProt P31749); assay: Reaction Biology HotSpot kinase assay; type: biochemical; settings: 500 nM compound; for inhibition at 0.5 µM: read-out: Percentage kinase inhibition AKT1
Procedure, shortened: (§1)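 Each compound was tested at 500 nM, with 33P incorporation from ATP (100 μM final, including [γ-33P]ATP) measured by P81 paper capture after a 2 h room-temperature reaction.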

ALK = ALK (Homo sapiens (Human), UniProt Q9UM73); assay: Reaction Biology HotSpot kinase assay; type: biochemical; settings: 500 nM compound; for inhibition at 0.5 µM: read-out: Percentage kinase inhibition ALK
Procedure, shortened: (§2)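 Radiometric HotSpot format: compound at single dose 500 nM preincubated 20 min with kinase and substrate in pH 7.5 HEPES buffer (MgCl2, EGTA, Brij35, BSA, Na3VO4, DTT, 1% DMSO). Reaction with 100 μM total ATP including [γ-33P]ATP, 2 h RT, P81 filter capture; values as % remaining activity versus DMSO.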

AXL = AXL (Homo sapiens (Human), UniProt P30530); assay: Reaction Biology HotSpot kinase assay; type: biochemical; settings: 500 nM compound; for inhibition at 0.5 µM: read-out: Percentage kinase inhibition AXL
Procedure, shortened: (§3)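 Compounds were screened at one concentration, 500 nM, in a radiometric kinase reaction. After a 20-minute preincubation with enzyme and substrate in pH 7.5 HEPES buffer (1% DMSO), the mixture received 100 μM ATP containing [γ-33P]ATP and was left 2 h at room temperature.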

BRAF = BRAF (Homo sapiens (Human), UniProt P15056); assay: Reaction Biology HotSpot kinase assay; type: biochemical; settings: 500 nM compound; for inhibition at 0.5 µM: read-out: Percentage kinase inhibition BRAF
Procedure, shortened: as §3

BTK = BTK (Homo sapiens (Human), UniProt Q06187); assay: Reaction Biology HotSpot kinase assay; type: biochemical; settings: 500 nM compound; for inhibition at 0.5 µM: read-out: Percentage kinase inhibition BTK
BTK, sequence (Q06187 whole entry): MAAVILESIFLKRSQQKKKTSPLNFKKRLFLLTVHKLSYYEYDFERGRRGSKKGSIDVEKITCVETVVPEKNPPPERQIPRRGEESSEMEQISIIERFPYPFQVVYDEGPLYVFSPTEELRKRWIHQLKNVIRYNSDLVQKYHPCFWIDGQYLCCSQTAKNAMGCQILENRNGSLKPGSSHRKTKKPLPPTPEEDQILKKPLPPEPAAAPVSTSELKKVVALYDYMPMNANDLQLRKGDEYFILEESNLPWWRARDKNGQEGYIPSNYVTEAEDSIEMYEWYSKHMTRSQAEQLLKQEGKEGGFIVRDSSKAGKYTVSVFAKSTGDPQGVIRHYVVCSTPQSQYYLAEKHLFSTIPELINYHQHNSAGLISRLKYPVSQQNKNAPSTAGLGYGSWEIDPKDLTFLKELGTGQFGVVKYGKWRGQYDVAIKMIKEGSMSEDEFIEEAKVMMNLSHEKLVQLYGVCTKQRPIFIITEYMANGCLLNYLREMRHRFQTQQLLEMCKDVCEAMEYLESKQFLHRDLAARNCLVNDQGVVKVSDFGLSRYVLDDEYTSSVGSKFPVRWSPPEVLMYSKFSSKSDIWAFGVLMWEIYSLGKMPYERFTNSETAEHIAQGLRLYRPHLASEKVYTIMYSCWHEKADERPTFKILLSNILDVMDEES
Procedure, shortened: as §2

EGFR = EGFR (Homo sapiens (Human), UniProt P00533); assay: Reaction Biology HotSpot kinase assay; type: biochemical; settings: 500 nM compound; for inhibition at 0.5 µM: read-out: Percentage kinase inhibition EGFR
EGFR, sequence (P00533 25-1210): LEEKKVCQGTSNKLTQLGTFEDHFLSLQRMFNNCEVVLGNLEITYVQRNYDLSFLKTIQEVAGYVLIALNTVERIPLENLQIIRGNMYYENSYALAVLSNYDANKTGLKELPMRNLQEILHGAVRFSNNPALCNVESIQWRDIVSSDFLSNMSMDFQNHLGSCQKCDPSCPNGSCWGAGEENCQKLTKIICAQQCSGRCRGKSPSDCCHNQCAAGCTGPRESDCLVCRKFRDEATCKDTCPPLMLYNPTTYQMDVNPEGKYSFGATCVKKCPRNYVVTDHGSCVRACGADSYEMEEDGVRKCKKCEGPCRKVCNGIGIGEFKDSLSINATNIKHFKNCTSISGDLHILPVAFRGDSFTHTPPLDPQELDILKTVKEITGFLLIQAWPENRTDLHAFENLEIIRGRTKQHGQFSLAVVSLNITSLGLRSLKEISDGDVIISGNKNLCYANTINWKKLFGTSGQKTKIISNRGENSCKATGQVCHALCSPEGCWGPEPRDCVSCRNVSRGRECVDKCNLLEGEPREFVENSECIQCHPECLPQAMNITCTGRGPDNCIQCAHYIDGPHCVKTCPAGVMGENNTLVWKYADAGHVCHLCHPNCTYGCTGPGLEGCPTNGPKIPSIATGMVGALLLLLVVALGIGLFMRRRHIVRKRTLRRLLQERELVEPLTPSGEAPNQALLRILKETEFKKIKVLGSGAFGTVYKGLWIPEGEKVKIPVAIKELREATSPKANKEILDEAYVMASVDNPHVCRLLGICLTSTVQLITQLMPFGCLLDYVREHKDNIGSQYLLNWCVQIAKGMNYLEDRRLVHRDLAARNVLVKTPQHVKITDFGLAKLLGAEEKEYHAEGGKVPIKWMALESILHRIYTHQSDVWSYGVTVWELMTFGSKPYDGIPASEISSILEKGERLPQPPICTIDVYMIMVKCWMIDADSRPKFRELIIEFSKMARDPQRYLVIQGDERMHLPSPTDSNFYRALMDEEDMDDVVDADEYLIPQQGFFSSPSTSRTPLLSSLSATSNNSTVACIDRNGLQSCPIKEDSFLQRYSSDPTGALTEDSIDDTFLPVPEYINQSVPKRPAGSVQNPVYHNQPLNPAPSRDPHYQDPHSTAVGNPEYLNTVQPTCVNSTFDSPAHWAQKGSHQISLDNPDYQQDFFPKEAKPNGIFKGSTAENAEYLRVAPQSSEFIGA
Procedure, shortened: as §2

EPHA5 = EPHA5 (Homo sapiens (Human), UniProt P54756); assay: Reaction Biology HotSpot kinase assay; type: biochemical; settings: 500 nM compound; for inhibition at 0.5 µM: read-out: Percentage kinase inhibition EPHA5
Procedure, shortened: as §2

ERBB2/HER2 = ERBB2/HER2 (Homo sapiens (Human), UniProt P04626); assay: Reaction Biology HotSpot kinase assay; type: biochemical; settings: 500 nM compound; for inhibition at 0.5 µM: read-out: Percentage kinase inhibition ERBB2/HER2
Procedure, shortened: as §2

FGFR1 = FGFR1 (Homo sapiens (Human), UniProt P11362); assay: Reaction Biology HotSpot kinase assay; type: biochemical; settings: 500 nM compound; for inhibition at 0.5 µM: read-out: Percentage kinase inhibition FGFR1
FGFR1, sequence (P11362 22-822): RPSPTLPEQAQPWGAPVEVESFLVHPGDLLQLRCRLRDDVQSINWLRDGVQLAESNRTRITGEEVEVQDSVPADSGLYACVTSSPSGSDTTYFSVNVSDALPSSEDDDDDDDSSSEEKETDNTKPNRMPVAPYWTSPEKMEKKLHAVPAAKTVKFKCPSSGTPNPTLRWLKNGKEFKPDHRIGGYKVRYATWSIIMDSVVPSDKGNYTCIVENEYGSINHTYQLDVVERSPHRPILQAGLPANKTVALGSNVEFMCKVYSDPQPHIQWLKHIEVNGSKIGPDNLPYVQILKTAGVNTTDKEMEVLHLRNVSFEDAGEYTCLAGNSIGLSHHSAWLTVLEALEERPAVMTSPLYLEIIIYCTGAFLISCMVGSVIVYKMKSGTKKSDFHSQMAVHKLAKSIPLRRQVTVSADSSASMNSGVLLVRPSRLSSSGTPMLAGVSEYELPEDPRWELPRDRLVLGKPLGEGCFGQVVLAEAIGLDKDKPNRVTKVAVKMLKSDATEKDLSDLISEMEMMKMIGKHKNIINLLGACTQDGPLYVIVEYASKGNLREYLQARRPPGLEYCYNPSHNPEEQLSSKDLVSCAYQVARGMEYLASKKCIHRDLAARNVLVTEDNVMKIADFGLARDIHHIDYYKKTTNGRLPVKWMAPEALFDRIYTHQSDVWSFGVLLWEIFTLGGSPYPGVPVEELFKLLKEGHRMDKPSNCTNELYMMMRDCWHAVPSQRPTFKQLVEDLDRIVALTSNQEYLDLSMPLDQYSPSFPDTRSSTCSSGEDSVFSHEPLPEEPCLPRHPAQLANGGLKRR
Procedure, shortened: as §1

FGR = FGR (Homo sapiens (Human), UniProt P09769); assay: Reaction Biology HotSpot kinase assay; type: biochemical; settings: 500 nM compound; for inhibition at 0.5 µM: read-out: Percentage kinase inhibition FGR
Procedure, shortened: as §2

FLT1/VEGFR1 = FLT1/VEGFR1 (Homo sapiens (Human), UniProt P17948); assay: Reaction Biology HotSpot kinase assay; type: biochemical; settings: 500 nM compound; for inhibition at 0.5 µM: read-out: Percentage kinase inhibition FLT1/VEGFR1
FLT1/VEGFR1, sequence (P17948 27-1338): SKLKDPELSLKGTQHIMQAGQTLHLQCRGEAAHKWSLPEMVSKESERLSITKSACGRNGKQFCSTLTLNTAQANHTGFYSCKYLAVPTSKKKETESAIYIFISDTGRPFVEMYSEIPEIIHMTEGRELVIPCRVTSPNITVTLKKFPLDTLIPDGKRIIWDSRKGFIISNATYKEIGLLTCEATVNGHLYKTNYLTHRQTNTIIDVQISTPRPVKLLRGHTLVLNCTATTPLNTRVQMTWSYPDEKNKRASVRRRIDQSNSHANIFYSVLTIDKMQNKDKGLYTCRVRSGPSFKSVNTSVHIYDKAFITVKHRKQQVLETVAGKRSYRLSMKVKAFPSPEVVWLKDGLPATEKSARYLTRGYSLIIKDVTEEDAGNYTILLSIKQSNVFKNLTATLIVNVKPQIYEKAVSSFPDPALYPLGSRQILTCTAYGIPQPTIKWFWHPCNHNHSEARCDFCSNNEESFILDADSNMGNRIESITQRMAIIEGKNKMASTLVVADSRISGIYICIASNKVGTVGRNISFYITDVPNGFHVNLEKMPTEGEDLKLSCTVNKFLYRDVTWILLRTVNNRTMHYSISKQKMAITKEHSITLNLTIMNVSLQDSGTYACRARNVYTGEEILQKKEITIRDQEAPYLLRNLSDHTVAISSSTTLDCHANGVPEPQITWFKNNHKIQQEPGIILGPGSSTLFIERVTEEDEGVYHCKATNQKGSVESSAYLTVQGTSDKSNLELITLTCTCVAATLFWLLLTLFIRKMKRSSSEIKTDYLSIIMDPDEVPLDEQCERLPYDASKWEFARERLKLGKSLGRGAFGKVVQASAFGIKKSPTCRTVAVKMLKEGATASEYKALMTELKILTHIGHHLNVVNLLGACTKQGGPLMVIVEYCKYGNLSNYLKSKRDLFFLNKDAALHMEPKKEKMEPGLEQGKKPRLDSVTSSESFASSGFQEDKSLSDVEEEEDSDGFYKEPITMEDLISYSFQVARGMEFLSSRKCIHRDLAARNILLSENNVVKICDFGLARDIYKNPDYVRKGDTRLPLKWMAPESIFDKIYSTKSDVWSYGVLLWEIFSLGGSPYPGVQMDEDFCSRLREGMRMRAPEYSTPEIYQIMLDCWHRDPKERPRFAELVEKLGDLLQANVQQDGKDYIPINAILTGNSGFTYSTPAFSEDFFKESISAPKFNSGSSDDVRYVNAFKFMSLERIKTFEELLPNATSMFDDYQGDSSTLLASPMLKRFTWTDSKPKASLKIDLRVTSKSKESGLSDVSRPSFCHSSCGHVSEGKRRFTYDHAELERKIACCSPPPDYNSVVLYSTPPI
Procedure, shortened: as §2

FLT3 = FLT3 (Homo sapiens (Human), UniProt P36888); assay: Reaction Biology HotSpot kinase assay; type: biochemical; settings: for inhibition at 0.5 µM: read-out: % inhibition of FLT3 activity
Procedure, shortened: as §1

FLT4/VEGFR3 = FLT4/VEGFR3 (Homo sapiens (Human), UniProt P35916); assay: Reaction Biology HotSpot kinase assay; type: biochemical; settings: 500 nM compound; for inhibition at 0.5 µM: read-out: Percentage kinase inhibition FLT4/VEGFR3
Procedure, shortened: as §2

KDR/VEGFR2 = KDR/VEGFR2 (Homo sapiens (Human), UniProt P35968); assay: Reaction Biology HotSpot kinase assay; type: biochemical; settings: 500 nM compound; for inhibition at 0.5 µM: read-out: Percentage kinase inhibition KDR/VEGFR2
Procedure, shortened: as §2

PKCa = PKCa (Homo sapiens (Human), UniProt P17252); assay: Reaction Biology HotSpot kinase assay; type: biochemical; settings: 500 nM compound; for inhibition at 0.5 µM: read-out: Percentage kinase inhibition PKCa
Procedure, shortened: as §2

ROS/ROS1 = ROS/ROS1 (Homo sapiens (Human), UniProt P08922); assay: Reaction Biology HotSpot kinase assay; type: biochemical; settings: 500 nM compound; for inhibition at 0.5 µM: read-out: Percentage kinase inhibition ROS/ROS1
Procedure, shortened: as §2

TIE2/TEK = TIE2/TEK (Homo sapiens (Human), UniProt Q02763); assay: Reaction Biology HotSpot kinase assay; type: biochemical; settings: 500 nM compound; for inhibition at 0.5 µM: read-out: Percentage kinase inhibition TIE2/TEK
Procedure, shortened: as §2

TRKB = TRKB (Homo sapiens (Human), UniProt Q16620); assay: Reaction Biology HotSpot kinase assay; type: biochemical; settings: 500 nM compound; for inhibition at 0.5 µM: read-out: Percentage kinase inhibition TRKB
Procedure, shortened: as §2

YES/YES1 = YES/YES1 (Homo sapiens (Human), UniProt P07947); assay: Reaction Biology HotSpot kinase assay; type: biochemical; settings: 500 nM compound; for inhibition at 0.5 µM: read-out: Percentage kinase inhibition YES/YES1
YES/YES1, sequence (P07947 whole entry): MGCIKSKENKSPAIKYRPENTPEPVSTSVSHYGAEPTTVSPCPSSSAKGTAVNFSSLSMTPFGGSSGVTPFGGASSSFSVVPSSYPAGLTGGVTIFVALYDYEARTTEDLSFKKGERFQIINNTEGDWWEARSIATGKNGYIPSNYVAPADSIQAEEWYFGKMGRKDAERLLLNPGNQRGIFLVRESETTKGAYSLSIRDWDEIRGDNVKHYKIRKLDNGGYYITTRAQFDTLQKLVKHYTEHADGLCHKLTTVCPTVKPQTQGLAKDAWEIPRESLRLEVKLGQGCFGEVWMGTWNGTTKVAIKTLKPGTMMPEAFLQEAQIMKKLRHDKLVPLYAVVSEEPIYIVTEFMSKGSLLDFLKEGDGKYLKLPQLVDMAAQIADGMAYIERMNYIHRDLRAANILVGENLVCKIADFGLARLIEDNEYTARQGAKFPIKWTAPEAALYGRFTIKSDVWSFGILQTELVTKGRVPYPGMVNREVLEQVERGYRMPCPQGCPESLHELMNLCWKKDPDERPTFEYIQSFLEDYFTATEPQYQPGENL
Procedure, shortened: as §2

c-MER = c-MER (Homo sapiens (Human), UniProt Q12866); assay: Reaction Biology HotSpot kinase assay; type: biochemical; settings: 500 nM compound; for inhibition at 0.5 µM: read-out: Percentage kinase inhibition c-MER
Procedure, shortened: as §2

c-Met = c-Met (Homo sapiens (Human), UniProt P08581); assay: Reaction Biology HotSpot kinase assay; type: biochemical; settings: 500 nM compound; for inhibition at 0.5 µM: read-out: Percentage kinase inhibition c-Met
Procedure, shortened: as §2

K562 = assay: IC50 proliferation assay (Alamar Blue, 72 h); type: cell-based
MV4-11 = assay: IC50 proliferation assay (Alamar Blue, 72 h); type: cell-based; settings: read-out: IC50 (proliferation inhibition) Cell line - MV4-11
Procedure, shortened: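 Cells seeded ~18 h before treatment with semi-serial compound dilutions made in DMSO then growth medium. After 72 h exposure, Alamar Blue added and read following 4 h further at 37 °C; IC50 for proliferation inhibition.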

MOLM14 = assay: IC50 determination (proliferation assay, CellTiter-Blue); type: cell-based
Procedure, shortened: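 MOLM14 and MV4-11 cells seeded about 18 h before compound addition (DMSO-diluted), then 72 h exposure.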

[1] = Homo sapiens, K562, Table 18, read-out: Inhibition of proliferation of K562 cell lines (CML)
[2] = Homo sapiens, K562, 72 h, read-out: IC50 (proliferation inhibition) Cell line - K562

AKT1, sequence (P31749 whole entry): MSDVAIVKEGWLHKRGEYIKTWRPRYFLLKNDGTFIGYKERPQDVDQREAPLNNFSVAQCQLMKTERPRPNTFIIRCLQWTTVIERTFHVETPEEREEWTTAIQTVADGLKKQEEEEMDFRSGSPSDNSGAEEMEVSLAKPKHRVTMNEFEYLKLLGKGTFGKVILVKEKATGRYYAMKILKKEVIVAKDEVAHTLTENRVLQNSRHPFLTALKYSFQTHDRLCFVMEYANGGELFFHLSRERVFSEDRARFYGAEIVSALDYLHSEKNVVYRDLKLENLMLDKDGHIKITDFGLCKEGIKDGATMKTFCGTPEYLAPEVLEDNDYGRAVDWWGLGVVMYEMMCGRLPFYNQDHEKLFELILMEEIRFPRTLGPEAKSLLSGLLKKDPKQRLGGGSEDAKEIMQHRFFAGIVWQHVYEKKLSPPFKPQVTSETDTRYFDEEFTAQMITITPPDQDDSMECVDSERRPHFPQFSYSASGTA

Cc1ccc(C(=O)Nc2ccc(CN3CCN(C)CC3)c(C(F)(F)F)c2)cc1C#Cc1c(N)ncc2ccc(Cl)cc12 [HSN286]
inhibition at 0.5 µM (AKT1): 0% | inhibition at 0.5 µM (ALK): 0% | inhibition at 0.5 µM (AXL): 3% | inhibition at 0.5 µM (BRAF): 97% | inhibition at 0.5 µM (BTK): 41% | inhibition at 0.5 µM (EGFR): 44% | inhibition at 0.5 µM (EPHA5): 96% | inhibition at 0.5 µM (ERBB2/HER2): 25% | inhibition at 0.5 µM (FGFR1): 98% | inhibition at 0.5 µM (FGR): 100% | inhibition at 0.5 µM (FLT1/VEGFR1): 86% | inhibition at 0.5 µM (FLT3): 97% | inhibition at 0.5 µM (FLT4/VEGFR3): 98% | inhibition at 0.5 µM (KDR/VEGFR2): 95% | inhibition at 0.5 µM (PKCa): 5% | inhibition at 0.5 µM (ROS/ROS1): 10% | inhibition at 0.5 µM (TIE2/TEK): 97% | inhibition at 0.5 µM (TRKB): 79% | inhibition at 0.5 µM (YES/YES1): 100% | inhibition at 0.5 µM (c-MER): 0% | inhibition at 0.5 µM (c-Met): 20% | IC50 (K562; [1]): 0.0035 ± 2e-05 µM | IC50 (MV4-11; Homo sapiens, MV4-11, 72 h): 0.0004 µM | IC50 (MOLM14): 0.72 ± 0.02 nM | IC50 (MOLM14; Homo sapiens, MOLM-14): 0.7 nM

Cc1ccc(C(=O)Nc2ccc(CN3CCN(C)CC3)c(C(F)(F)F)c2)cc1C#Cc1cc(N)nc2ccccc12 [HSN285]
inhibition at 0.5 µM (AKT1): 0% | inhibition at 0.5 µM (ALK): 1% | inhibition at 0.5 µM (AXL): 0% | inhibition at 0.5 µM (BRAF): 64% | inhibition at 0.5 µM (BTK): 0% | inhibition at 0.5 µM (EGFR): 0% | inhibition at 0.5 µM (EPHA5): 0% | inhibition at 0.5 µM (ERBB2/HER2): 0% | inhibition at 0.5 µM (FGFR1): 0% | inhibition at 0.5 µM (FGR): 0% | inhibition at 0.5 µM (FLT1/VEGFR1): 3% | inhibition at 0.5 µM (FLT3; 500 nM compound): 28% | inhibition at 0.5 µM (FLT4/VEGFR3): 6% | inhibition at 0.5 µM (KDR/VEGFR2): 15% | inhibition at 0.5 µM (PKCa): 6% | inhibition at 0.5 µM (ROS/ROS1): 0% | inhibition at 0.5 µM (TIE2/TEK): 0% | inhibition at 0.5 µM (TRKB): 0% | inhibition at 0.5 µM (YES/YES1): 0% | inhibition at 0.5 µM (c-MER): 3% | inhibition at 0.5 µM (c-Met): 23% | IC50 (K562; [2]): 1.1 µM | IC50 (K562; [1]): 1.102 ± 8e-05 µM | IC50 (MV4-11; Homo sapiens, MV4-11, 72 h): 0.722 µM | IC50 (MOLM14; Homo sapiens, MOLM-14): 415 ± 6.9 nM

CN(C)CC(O)CNC(=O)c1ccc(C#Cc2c(N)ncc3ccc(Cl)cc23)cc1 (centres unmarked) [HSM1702]
Percentage kinase inhibition AKT1 (AKT1): 13% | Percentage kinase inhibition ALK (ALK): 7% | Percentage kinase inhibition AXL (AXL): 0% | Percentage kinase inhibition BRAF (BRAF): 3% | Percentage kinase inhibition BTK (BTK): 5% | Percentage kinase inhibition EGFR (EGFR): 0% | Percentage kinase inhibition EPHA5 (EPHA5): 4% | Percentage kinase inhibition ERBB2/HER2 (ERBB2/HER2): 0% | Percentage kinase inhibition FGFR1 (FGFR1): 11% | Percentage kinase inhibition FGR (FGR): 6% | Percentage kinase inhibition FLT1/VEGFR1 (FLT1/VEGFR1): 0% | % inhibition of FLT3 activity (FLT3; 500 nM compound): 66% | Percentage kinase inhibition FLT4/VEGFR3 (FLT4/VEGFR3): 10% | Percentage kinase inhibition KDR/VEGFR2 (KDR/VEGFR2): 9% | Percentage kinase inhibition PKCa (PKCa): 3% | Percentage kinase inhibition ROS/ROS1 (ROS/ROS1): 15% | Percentage kinase inhibition TIE2/TEK (TIE2/TEK): 8% | Percentage kinase inhibition TRKB (TRKB): 40% | Percentage kinase inhibition YES/YES1 (YES/YES1): 13% | Percentage kinase inhibition c-MER (c-MER): 6% | Percentage kinase inhibition c-Met (c-Met): 4% | IC50 (K562; 72 h, read-out: IC50 (proliferation inhibition) Cell line - K562): 5.06 µM | IC50 (K562; Table 18, read-out: Inhibition of proliferation of K562 cell lines (CML)): 5.057 ± 0.00045 µM | IC50 (MV4-11; 72 h): 0.071 µM | IC50 (MOLM14): 102 ± 11 nM

COc1cc2nc(N)nc(C#Cc3cc(C(=O)Nc4ccc(CN5CCN(C)CC5)c(C(F)(F)F)c4)ccc3C)c2cc1OC [HSN325]
inhibition at 0.5 µM (AKT1): 0% | inhibition at 0.5 µM (ALK): 2% | inhibition at 0.5 µM (AXL): 3% | inhibition at 0.5 µM (BRAF): 38% | inhibition at 0.5 µM (BTK): 4% | inhibition at 0.5 µM (EGFR): 0% | inhibition at 0.5 µM (EPHA5): 30% | inhibition at 0.5 µM (ERBB2/HER2): 4% | inhibition at 0.5 µM (FGFR1): 58% | inhibition at 0.5 µM (FGR): 39% | inhibition at 0.5 µM (FLT1/VEGFR1): 42% | % inhibition of FLT3 activity (FLT3; 500 nM compound): 34% | inhibition at 0.5 µM (FLT3; 500 nM compound): 33% | inhibition at 0.5 µM (FLT4/VEGFR3): 42% | inhibition at 0.5 µM (KDR/VEGFR2): 90% | inhibition at 0.5 µM (PKCa): 5% | inhibition at 0.5 µM (ROS/ROS1): 0% | inhibition at 0.5 µM (TIE2/TEK): 47% | inhibition at 0.5 µM (TRKB): 0% | inhibition at 0.5 µM (YES/YES1): 41% | inhibition at 0.5 µM (c-MER): 0% | inhibition at 0.5 µM (c-Met): 15% | IC50 (K562; [2]): 0.444 µM | IC50 (K562; [1]): 0.044 ± 0.0001 µM | IC50 (MV4-11; Homo sapiens, MV4-11, 72 h): 0.135 µM | IC50 (MOLM14; Homo sapiens, MOLM-14): 456 ± 15 nM
